In US6812377B2, “Genetic engineering of syringyl-enriched lignin in plants” (Board of Control of Michigan Technological University, priority 2000, dated 2004):

Biological target: T1, PtCAD (recombinant coniferyl alcohol dehydrogenase, GenBank AF217957, C-terminal His tag, expressed in E. coli BL21(DE3)) (Populus tremuloides, UniProt Q9M632)
T1 sequence (Q9M632 1-357): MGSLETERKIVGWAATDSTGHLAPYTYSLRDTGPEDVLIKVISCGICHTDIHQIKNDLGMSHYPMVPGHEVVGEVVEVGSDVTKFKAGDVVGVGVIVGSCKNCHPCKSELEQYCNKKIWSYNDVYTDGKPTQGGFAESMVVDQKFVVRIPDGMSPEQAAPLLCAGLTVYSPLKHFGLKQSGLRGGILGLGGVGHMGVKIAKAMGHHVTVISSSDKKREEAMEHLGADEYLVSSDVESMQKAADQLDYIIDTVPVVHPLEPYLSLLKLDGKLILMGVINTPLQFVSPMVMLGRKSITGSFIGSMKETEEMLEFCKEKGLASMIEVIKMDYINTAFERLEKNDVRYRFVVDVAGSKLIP
Test: Inhibition kinetics of PtCAD: PtCAD-mediated reduction of sinapaldehyde in the presence of coniferaldehyde, HPLC-UV/MS (FIG. 6)
Format: biochemical, Populus tremuloides (quaking aspen)
Settings: coniferaldehyde (1 to 5 μM) as inhibitor of PtCAD-mediated reduction of sinapaldehyde (1 to 200 μM); 500 μM NADPH; 1.2 μg purified recombinant PtCAD; pH 8.0; 4 min; 30° C.; read-out: apparent inhibition constant (Ki)
Text: FIG. 6 illustrates inhibition kinetics of PtCAD and PtSAD;
A guaiacyl pathway gene encoding coniferyl alcohol dehydrogenase (CAD, FIG. 1) from Populus tremuloides (GenBank #AF217957) was first cloned. This cDNA was designated as PtCAD (GenBank #AF217957). E. coli-expressed recombinant PtCAD protein was characterized for its catalytic activity with coniferaldehyde and sinapaldehyde. Because monolignol biosynthetic pathway intermediates are present together in lignifying tissues (Osakabe et al., 1999; Li et al. 2000), the PtCAD enzyme activity with a mixture of coniferaldehyde and sinapaldehyde was assayed. As shown in FIG. 5 (a) and (c), the reaction mixture was separated by HPLC after the enzyme reaction. […] Thus, PtCAD has a specific catalytic reaction function with coniferaldehyde for the biosynthesis of guaiacyl monolignol, coniferyl alcohol (FIG. 1). […]
For normal and inhibition kinetic analyses, the reaction time was 4 min and pH was 8.0 for PtCAD (1.2 μg of purified recombinant protein) and 7.0 for PtSAD (0.1 μg). […] All reactions were terminated by the addition of 10 μL of 6 N HCI (to bring the pH to 2) and 500 ng of internal standard o-coumaric acid and analyzed by HPLC-UV/MS. […]

Q: How did the Ki turn out when `COc1cc(/C=C/C=O)ccc1O` [Coniferaldehyde] was run?
A: 1.7 µM
